# Reference: US7132542B2, “Compounds for the treatment of male erectile dysfunction” (Bristol-Myers Squibb Company, priority 2003, dated 2006)
# How the values were obtained:
# [1] = test system: cloned mammalian (mSlo or hSlo) BK channel; assay: Assay for BK channel openers: two-electrode voltage clamp of BK-mediated outward current in Xenopus oocytes; type: cell-based; settings: at 20 μM; percent increase over BK current in controls, voltage step to +140 mV; IBTX-sensitive current
# Description: The ability of the compounds of the invention to open BK channels and increase whole-cell outward (K^+) BK-mediated currents was assessed under voltage-clamp conditions by determining their ability to increase cloned mammalian (mSlo or hSlo) BK-mediated outward current heterologously expressed in Xenopus oocytes [Butler, A., et al., Science 1993, 261, 221–224; Dworetzky, S. I., et al., Mol. Brain Res. 1994, 27, 189–193; Gribkoff, V. K., et al., Mol. Pharmacol. 1996, 50, 206–217]. The two BK constructs employed represent nearly structurally identical homologous proteins, and have proven to be pharmacologically indistinguishable in our tests. To isolate BK current from native (background, non-BK) current, the specific and potent BK channel-blocking toxin iberiotoxin (IBTX) [Galvez, A., et al., J. Biol. Chem. 1990, 265, 11083–11090] was employed at a supramaximal concentration, e.g., 50–100 nanomolar (“nM”). The relative contribution of BK channel-mediated current to total outward current was determined by subtraction of the current remaining in the presence of IBTX (non-BK current) from the current profiles obtained in all other experimental conditions (control, drug, and wash) [Gribkoff, V. K. et al., Mol. Pharmacol. 1996, 50, 206–217]. […] All compounds were tested in 5–10 oocytes and are reported at the indicated concentration of 20 micromolar (“μM”) (or as otherwise indicated); the effect of the selected compounds of the invention on BK current was expressed as the percent of control IBTX-sensitive current at a single transmembrane voltage (+140 mV) and is listed in Table 1. Recordings were accomplished using standard two-electrode voltage clamp techniques [Stuhmer, W., et al., Methods in Enzymology, 1992, 207, 319–339]; voltage-clamp protocols consisted of 500–750 milliseconds (“ms”) duration step depolarizations, from a holding potential of −60 mV, to a final voltage up to +140 mV in 20 mV steps. The experimental media (modified Barth's solution) consisted of millimolar (“mM”): NaCl (88), NaHCO3 (2.4), KCl (1.0), HEPES (10), MgSO4 (0.82), Ca(NO3)2 (0.33), CaCl2 (0.41); pH 7.5.
# [2] = test system: rat small intestine tissue; assay: Relaxation of rat small intestine (ileum) segments; design: concentration or dose not given beside the values; settings: integral of nifedipine-sensitive force, 30 min post-compound addition
# Text: The ability of the compounds of the invention to relax rat small intestine tissue as a model for the treatment of irritable bowel syndrome is described as follows. Male rats (Harlan, Sprague Dawley, 250–350 g) were sacrificed by decapitation. A portion of small intestine (ileum) was removed and the attached connective tissues and intestinal contents removed. The ileum was cut into segments of ≦1 cm in length. The segments were mounted longitudinally between fixed hooks in organ baths containing warm (37° C.) physiological salt solution (composition in mM: NaCl 118.4, KCl 4.7, KH2PO4 1.2, MgSO4 1.2, CaCl2 1.8, Glucose 10.1, NaHCO3 25; gassed with 95% O2/5% CO2, pH 7.4). A stable tension of ˜1.5 g was maintained in the tissue segments during the equilibration period of 45 minutes. Changes in muscle tension were measured with isometric force transducers (Grass, FT-03C) and recorded using AcqKnowledge data acquisition system (AcqKnowledge for MP100WS, Biopac Systems Inc., Goleta, Calif.). Compound or vehicle was added in the baths for 30 minutes. “Zero” active force was established at the end of the experiment using nifedipine (20 μM). The effects of compounds or vehicle on force was determined by measuring the integral of nifedipine-sensitive force (including resting tone and spontaneous contractions) pre- and 30 min post-compound (or vehicle) addition. Results are expressed as the percentage inhibition of force. DMSO vehicle inhibited force (integral) by −0.6±3.0% (n=25).
# [3] = test system: rabbit corpus cavernosum tissue; assay: Relaxation of rabbit corpus cavernosum strips precontracted with phenylephrine; settings: Oryctolagus cuniculus; inhibition of phenylephrine (3 μM)-induced force as compared to vehicle control; read-out: % Inhibition of force (RCC strips)
# Description: The ability of the compounds of the invention to relax rabbit corpus cavernosum tissue as a model for the treatment of erectile dysfunction is described as follows. New Zealand white rabbits (3.4–3.7 kg) were euthanized by sodium pentobarbital (100 mg/kg) overdose. The penis from each animal was rapidly removed and immersed in a cold oxygenated modified Krebs Henseleit bicarbonate buffer. The penis' outer tunica was removed and the corpus cavernosum smooth muscle obtained and cut into strips approximately 3–5 mm long. The strips were suspended in tissue baths containing physiological salt solution (see above), and allowed to equilibrate for at least one hour under resting tension of 1.0 gram. Isometric force was measured as described above. Tissue strips were stimulated with the α-agonist phenylephrine (3 μM) and allowed to reach a steady level of force prior to the addition of test compounds. The results are expressed as the percentage inhibition of phenylephrine-induced force as compared to vehicle control.
structure (smiles),measurement,setting,value
"CN(C)C1CCN(CC(=O)Nc2ccc(Sc3c(-c4cc(Cl)ccc4O)c4cc(C(F)(F)F)ccc4[nH]c3=O)cc2)CC1 [Example 10, N-[4-[[4-(5-chloro-2-hydroxyphenyl)-1,2-dihydro-2-oxo-6-(trifluoromethyl)-3-quinolinyl]thio]phenyl]-4-(dimethylamino)-1-piperidineacetamide]",% MaxiK opening,[1],292%
same,% Inhibition of force (RSI strips),[2],54%
same,inhibition,[3],19%
